# Experimental data: ChEMBL document CHEMBL3526082, “Identification of metabolites of ganoderic acid D by ultra-performance liquid chromatography/quadrupole time-of-flight mass spectrometry” (Drug Metab Dispos, 2012); call rule not given here
# What was measured:
# [1] = Retention time of the compound in Sprague-Dawley rat bile by UPLC/Q-TOF analysis; type: ADME
# Liver microsome [2] = assay: Drug level in Sprague-Dawley rat liver microsomes assessed as compound formation treated with ganoderic acid D at 100 uM after 1 hr by UPLC/Q-TOF analysis; type: ADME
# [3] = Drug excretion in Sprague-Dawley rat bile treated with ganoderic acid D at 10 mg/kg, po after 12 hrs by UPLC/Q-TOF analysis; type: ADME, organism-based; design: dose 10 mg/kg, route oral; details: in vivo
# Liver microsome [4] = assay: Drug metabolism in Sprague-Dawley rat liver microsomes assessed as (6R)-6-((5R,7S,10S,13R,14R,17R)-2,7-dihydroxy-4-(hydroxymethyl)-4,10,13,14-tetramethyl-3,11,15-trioxo-2,3,4,5,6,7,10,11,12,13,14,15,16,17-tetradecahydro-1H-cyclopenta[a]phenanthren-17-yl)-2-methyl-4-oxoheptanoic acid formation at 100 uM after 1 hr by UPLC/Q-TOF analysis; type: ADME
# HeLa = assay: Antiproliferative activity against human HeLa cells assessed as inhibition of cell proliferation after 48 hrs; type: functional, cell-based
# [5] = Drug excretion in Sprague-Dawley rat bile assessed as (6R)-6-((5R,7S,10S,13R,14R,17R)-2,7-dihydroxy-4,4,10,13,14-pentamethyl-3,11,15-trioxo-2,3,4,5,6,7,10,11,12,13,14,15,16,17-tetradecahydro-1H-cyclopenta[a]phenanthren-17-yl)-2-methyl-4-oxoheptanoic acid level at 10 mg/kg, po after 12 hrs by UPLC/Q-TOF analysis; type: ADME, organism-based; design: dose 10 mg/kg, route oral; details: in vivo
# [6] = Drug excretion in Sprague-Dawley rat bile assessed as (6R)-6-((5R,7S,10S,13R,14R,17R)-7-hydroxy-4,4,10,13,14-pentamethyl-3,11,15-trioxo-2,3,4,5,6,7,10,11,12,13,14,15,16,17-tetradecahydro-1H-cyclopenta[a]phenanthren-17-yl)-2-(hydroxymethyl)-4-oxoheptanoic acid level at 10 mg/kg, po after 12 hrs by UPLC/Q-TOF analysis; type: ADME, organism-based; design: dose 10 mg/kg, route oral; details: in vivo
# [7] = Drug excretion in Sprague-Dawley rat bile assessed as (6R)-2-hydroxy-6-((5R,7S,10S,13R,14R,17R)-7-hydroxy-4-(hydroxymethyl)-4,10,13,14-tetramethyl-3,11,15-trioxo-2,3,4,5,6,7,10,11,12,13,14,15,16,17-tetradecahydro-1H-cyclopenta[a]phenanthren-17-yl)-2-methyl-4-oxoheptanoic acid level at 10 mg/kg, po after 12 hrs by UPLC/Q-TOF analysis; type: ADME, organism-based; design: dose 10 mg/kg, route oral; details: in vivo
# [8] = Drug excretion in Sprague-Dawley rat bile assessed as (6R)-6-((5R,7S,10S,13R,14R,17R)-2,7-dihydroxy-4-(hydroxymethyl)-4,10,13,14-tetramethyl-3,11,15-trioxo-2,3,4,5,6,7,10,11,12,13,14,15,16,17-tetradecahydro-1H-cyclopenta[a]phenanthren-17-yl)-2-hydroxy-2-methyl-4-oxoheptanoic acid level at 10 mg/kg, po after 12 hrs by UPLC/Q-TOF analysis; type: ADME, organism-based; design: dose 10 mg/kg, route oral; details: in vivo
# [9] = Drug excretion in Sprague-Dawley rat bile assessed as (6R)-2-hydroxy-6-((5R,7S,10S,13R,14R,17R)-7-hydroxy-4,4,10,13,14-pentamethyl-3,11,15-trioxo-2,3,4,5,6,7,10,11,12,13,14,15,16,17-tetradecahydro-1H-cyclopenta[a]phenanthren-17-yl)-2-methyl-4-oxoheptanoic acid level at 10 mg/kg, po after 12 hrs by UPLC/Q-TOF analysis; type: ADME, organism-based; design: dose 10 mg/kg, route oral; details: in vivo
# [10] = Drug excretion in Sprague-Dawley rat urine assessed as parent compound at 10 mg/kg, po by UPLC/Q-TOF analysis; type: ADME, organism-based; design: dose 10 mg/kg, route oral; details: in vivo
# Rattus norvegicus = assay: Drug metabolism in Sprague-Dawley rat plasma assessed as 3,7(S)-dihydroxy-11,15,23-trioxolanost-8-en-26-oic acid level at 10 mg/kg, po by UPLC/Q-TOF analysis; type: ADME, organism-based; design: dose 10 mg/kg, route oral; details: in vivo
# Plasma [11] = assay: Drug level in Sprague-Dawley rat plasma at 10 mg/kg, po by UPLC/Q-TOF analysis; type: ADME, organism-based; design: dose 10 mg/kg, route oral; details: in vivo
# [12] = Drug excretion in Sprague-Dawley rat bile assessed as (6R)-6-((5R,7S,10S,13R,14R)-7-hydroxy-4-(hydroxymethyl)-4,10,13,14-tetramethyl-3,11,15-trioxo-2,3,4,5,6,7,10,11,12,13,14,15-dodecahydro-1H-cyclopenta[a]phenanthren-17-yl)-2-methyl-4-oxoheptanoic acid level at 10 mg/kg, po after 12 hrs by UPLC/Q-TOF analysis; type: ADME, organism-based; design: dose 10 mg/kg, route oral; details: in vivo
# [13] = Drug excretion in Sprague-Dawley rat bile assessed as 3,7,11,15,23-pentaoxolanost-8-en-26-oic acid level at 10 mg/kg, po after 12 hrs by UPLC/Q-TOF analysis; type: ADME, organism-based; design: dose 10 mg/kg, route oral; details: in vivo
# [14] = Drug excretion in Sprague-Dawley rat urine assessed as metabolite level at 10 mg/kg, po by UPLC/Q-TOF analysis; type: ADME, organism-based; design: dose 10 mg/kg, route oral; details: in vivo
# [15] = Drug excretion in Sprague-Dawley rat bile assessed as (6R)-6-((5R,7S,10S,13R,14R,17R)-2,7-dihydroxy-4-(hydroxymethyl)-4,10,13,14-tetramethyl-3,11,15-trioxo-2,3,4,5,6,7,10,11,12,13,14,15,16,17-tetradecahydro-1H-cyclopenta[a]phenanthren-17-yl)-2-methyl-4-oxoheptanoic acid level at 10 mg/kg, po after 12 hrs by UPLC/Q-TOF analysis; type: ADME, organism-based; design: dose 10 mg/kg, route oral; details: in vivo
# Liver microsome [16] = assay: Drug metabolism in Sprague-Dawley rat liver microsomes assessed as (6R)-6-((5R,7S,10S,13R,14R,17R)-2,7-dihydroxy-4,4,10,13,14-pentamethyl-3,11,15-trioxo-2,3,4,5,6,7,10,11,12,13,14,15,16,17-tetradecahydro-1H-cyclopenta[a]phenanthren-17-yl)-2-methyl-4-oxoheptanoic acid formation at 100 uM after 1 hr by UPLC/Q-TOF analysis; type: ADME
# [17] = Drug excretion in Sprague-Dawley rat bile assessed as (6R)-6-((5R,7S,10S,13R,14R,17R)-2,7-dihydroxy-4,4,10,13,14-pentamethyl-3,11,15-trioxo-2,3,4,5,6,7,10,11,12,13,14,15,16,17-tetradecahydro-1H-cyclopenta[a]phenanthren-17-yl)-2-hydroxy-2-methyl-4-oxoheptanoic acid level at 10 mg/kg, po after 12 hrs by UPLC/Q-TOF analysis; type: ADME, organism-based; design: dose 10 mg/kg, route oral; details: in vivo
# Plasma [18] = assay: Drug level in Sprague-Dawley rat plasma treated with ganoderic acid D at 10 mg/kg, po by UPLC/Q-TOF analysis; type: ADME, organism-based; design: dose 10 mg/kg, route oral; details: in vivo
# Liver microsome [19] = assay: Drug metabolism in Sprague-Dawley rat liver microsomes assessed as 3,7(S)-dihydroxy-11,15,23-trioxolanost-8-en-26-oic acid formation at 100 uM after 1 hr by UPLC/Q-TOF analysis; type: ADME
# [20] = Drug excretion in Sprague-Dawley rat bile assessed as (6R)-6-((5R,7S,10S,13R,14R)-3,7-dihydroxy-4,4,10,13,14-pentamethyl-11,15-dioxo-2,3,4,5,6,7,10,11,12,13,14,15-dodecahydro-1H-cyclopenta[a]phenanthren-17-yl)-2-methyl-4-oxoheptanoic acid level at 10 mg/kg, po after 12 hrs by UPLC/Q-TOF analysis; type: ADME, organism-based; design: dose 10 mg/kg, route oral; details: in vivo
# [21] = Drug excretion in Sprague-Dawley rat bile assessed as 3,7(S)-dihydroxy-11,15,23-trioxolanost-8-en-26-oic acid level at 10 mg/kg, po after 12 hrs by UPLC/Q-TOF analysis; type: ADME, organism-based; design: dose 10 mg/kg, route oral; details: in vivo
# [22] = Drug excretion in Sprague-Dawley rat bile assessed as 7(S) -hydroxy-11,15,23-trioxo-3-sulfooxylanost-8-en-26-oic acid level at 10 mg/kg, po after 12 hrs by UPLC/Q-TOF analysis; type: ADME, organism-based; design: dose 10 mg/kg, route oral; details: in vivo
# [23] = Drug excretion in Sprague-Dawley rat bile assessed as (6R)-6-((5R,7S,10S,13R,14R,17R)-2,7-dihydroxy-4,4,10,13,14-pentamethyl-3,11,15-trioxo-2,3,4,5,6,7,10,11,12,13,14,15,16,17-tetradecahydro-1H-cyclopenta[a]phenanthren-17-yl)-2-(hydroxymethyl)-4-oxoheptanoic acid level at 10 mg/kg, po after 12 hrs by UPLC/Q-TOF analysis; type: ADME, organism-based; design: dose 10 mg/kg, route oral; details: in vivo
smiles,measurement,setting,value
CC(CC(=O)CC(C)[C@H]1CC(=O)[C@@]2(C)C3=C(C(=O)C[C@]12C)[C@@]1(C)CC(O)C(=O)C(C)(C)[C@@H]1C[C@@H]3O)C(=O)O (some centres not stated),Retention_time,[1],9.5 min
same,Drug metabolism,Liver microsome [2],metabolite_detected
same,Drug excretion,[3],metabolite_detected
CC(CC(=O)CC(C)C1=CC(=O)[C@@]2(C)C3=C(C(=O)C[C@]12C)[C@@]1(C)CCC(=O)C(C)(C)[C@@H]1C[C@@H]3O)C(=O)O (some centres not stated),Retention_time,[1],11.9 min
same,Drug excretion,[3],metabolite_detected
CC(CC(=O)CC(C)[C@H]1CC(=O)[C@@]2(C)C3=C(C(=O)C[C@]12C)[C@@]1(C)CCC(O)C(C)(C)[C@@H]1C[C@@H]3O)C(=O)O (some centres not stated),Retention_time,[1],9.9 min
same,Drug metabolism,Liver microsome [2],metabolite_detected
same,Drug excretion,[3],metabolite_detected
CC(CC(=O)CC(CO)C(=O)O)[C@H]1CC(=O)[C@@]2(C)C3=C(C(=O)C[C@]12C)[C@@]1(C)CC(O)C(=O)C(C)(C)[C@@H]1C[C@@H]3O (some centres not stated),Retention_time,[1],8 min
same,Drug excretion,[3],metabolite_detected
CC(CC(=O)CC(C)[C@H]1CC(=O)[C@@]2(C)C3=C(C(=O)C[C@]12C)[C@@]1(C)CC(O)C(=O)C(C)(CO)[C@@H]1C[C@@H]3O)C(=O)O (some centres not stated),Retention_time,[1],7.3 min
same,Drug metabolism,Liver microsome [2],metabolite_detected
same,Drug excretion,[3],metabolite_detected
CC(CC(=O)CC(C)[C@H]1CC(=O)[C@@]2(C)C3=C(C(=O)C[C@]12C)[C@@]1(C)CCC(=O)C(C)(C)[C@@H]1C[C@@H]3O)C(=O)O (some centres not stated),Drug metabolism,Liver microsome [4],metabolite_detected
same,IC50,HeLa,17.3 µM
same,Retention_time,[1],11.3 min
same,Drug excretion,[5],metabolite_detected
same,Drug excretion,[6],metabolite_detected
same,Drug excretion,[7],metabolite_detected
same,Drug excretion,[8],metabolite_detected
same,Drug excretion,[9],metabolite_detected
same,Drug excretion,[10],metabolite_not_detected
same,Drug metabolism,Rattus norvegicus,metabolite_detected
same,Drug uptake,Plasma [11],Active
same,Drug excretion,[12],metabolite_detected
same,Drug excretion,[13],metabolite_detected
same,Drug excretion,[14],metabolite_not_detected
same,Drug excretion,[15],metabolite_detected
same,Drug metabolism,Liver microsome [16],metabolite_detected
same,Drug excretion,[17],metabolite_detected
same,Drug metabolism,Plasma [18],metabolite_detected
same,Drug metabolism,Liver microsome [19],metabolite_detected
same,Drug excretion,[20],metabolite_detected
same,Drug excretion,[21],metabolite_detected
same,Drug excretion,[22],metabolite_detected
same,Drug excretion,[23],metabolite_detected
CC(CC(=O)CC(C)(O)C(=O)O)[C@H]1CC(=O)[C@@]2(C)C3=C(C(=O)C[C@]12C)[C@@]1(C)CC(O)C(=O)C(C)(CO)[C@@H]1C[C@@H]3O (some centres not stated),Retention_time,[1],5.9 min
same,Drug excretion,[3],metabolite_detected
CC(CC(=O)CC(C)[C@H]1CC(=O)[C@@]2(C)C3=C(C(=O)C[C@]12C)[C@@]1(C)CCC(=O)C(C)(C)[C@@H]1CC3=O)C(=O)O (some centres not stated),Retention_time,[1],11.5 min
same,Drug excretion,[3],metabolite_detected
CC(CC(=O)CC(C)(O)C(=O)O)[C@H]1CC(=O)[C@@]2(C)C3=C(C(=O)C[C@]12C)[C@@]1(C)CC(O)C(=O)C(C)(C)[C@@H]1C[C@@H]3O (some centres not stated),Retention_time,[1],8.2 min
same,Drug excretion,[3],metabolite_detected
CC(CC(=O)CC(C)(O)C(=O)O)[C@H]1CC(=O)[C@@]2(C)C3=C(C(=O)C[C@]12C)[C@@]1(C)CCC(=O)C(C)(C)[C@@H]1C[C@@H]3O (some centres not stated),Retention_time,[1],10 min
same,Drug excretion,[3],metabolite_detected
CC(CC(=O)CC(C)[C@H]1CC(=O)[C@@]2(C)C3=C(C(=O)C[C@]12C)[C@@]1(C)CCC(=O)C(C)(CO)[C@@H]1C[C@@H]3O)C(=O)O (some centres not stated),Retention_time,[1],9.2 min
same,Drug excretion,[3],metabolite_detected
CC(CC(=O)CC(C)[C@H]1CC(=O)[C@@]2(C)C3=C(C(=O)C[C@]12C)[C@@]1(C)CCC(OS(=O)(=O)O)C(C)(C)[C@@H]1C[C@@H]3O)C(=O)O (some centres not stated),Retention_time,[1],8.5 min
same,Drug excretion,[3],metabolite_detected
CC(CC(=O)CC(C)(O)C(=O)O)[C@H]1CC(=O)[C@@]2(C)C3=C(C(=O)C[C@]12C)[C@@]1(C)CCC(=O)C(C)(CO)[C@@H]1C[C@@H]3O (some centres not stated),Retention_time,[1],7.5 min
same,Drug excretion,[3],metabolite_detected
CC(CC(=O)CC(CO)C(=O)O)[C@H]1CC(=O)[C@@]2(C)C3=C(C(=O)C[C@]12C)[C@@]1(C)CCC(=O)C(C)(C)[C@@H]1C[C@@H]3O (some centres not stated),Retention_time,[1],9.8 min
same,Drug excretion,[3],metabolite_detected
